Data from patent publication US6448293B1, “Diphenyl ether compounds useful in therapy” (Pfizer Inc., priority 2000, dated 2002).
Counter-ions that a name gives are not always drawn.

Target: T1, human serotonin transporter (hSERT) (Homo sapiens, UniProt P31645)
T1 construct: expressed in transfected cells; host or cells: HEK-293 (human embryonic kidney cells), stably transfected
T1 sequence (P31645 whole entry): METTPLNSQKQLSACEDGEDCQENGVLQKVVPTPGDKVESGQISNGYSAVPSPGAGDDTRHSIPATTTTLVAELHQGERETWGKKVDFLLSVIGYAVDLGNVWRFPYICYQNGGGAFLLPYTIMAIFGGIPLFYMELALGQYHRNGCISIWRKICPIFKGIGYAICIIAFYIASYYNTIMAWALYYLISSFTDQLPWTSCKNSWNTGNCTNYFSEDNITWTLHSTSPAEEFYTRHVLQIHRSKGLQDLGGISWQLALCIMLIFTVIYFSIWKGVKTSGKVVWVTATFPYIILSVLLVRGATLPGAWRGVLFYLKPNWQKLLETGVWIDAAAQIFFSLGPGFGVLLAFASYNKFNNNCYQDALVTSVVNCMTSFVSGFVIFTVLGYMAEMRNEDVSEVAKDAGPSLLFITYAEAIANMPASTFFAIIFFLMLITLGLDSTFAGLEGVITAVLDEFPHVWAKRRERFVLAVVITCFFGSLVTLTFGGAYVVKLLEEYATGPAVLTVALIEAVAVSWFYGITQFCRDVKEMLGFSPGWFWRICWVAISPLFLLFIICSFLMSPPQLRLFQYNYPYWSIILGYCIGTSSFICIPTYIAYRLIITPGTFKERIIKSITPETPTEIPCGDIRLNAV
Assay: Inhibition of 3H-Serotonin uptake into HEK-293 cells stably transfected with hSERT
Type: cell-based
Settings: not given
Protocol: A number of compounds were tested for biological activity by their ability to inhibit the uptake of serotonin by human serotonin transporters as follows.
Human embryonic kidney cells (HEK-293) stably transfected with either the human serotonin transporter (hSERT), noradrenaline transporter (hNET) or dopamine transporter (hDAT) were cultured under standard cell culture techniques (cells were grown at 37° C and 5% CO2 in DMEM-culture media (supplemented with 10% dialysed foetal calf serum (FCS), 2 mM 1-glutamine and 250 μg/ml geneticin)). Cells were harvested for the assay to yield a cell suspension of 750,000 cells/ml.
(i) Determination of inhibitor potency
All test compounds were dissolved in 100% DMSO and diluted down in assay buffer to give appropriate test concentrations. Assays were carried out in 96-well filter bottom plates. Cells (7500 cells/assay well) were pre-incubated in standard assay buffer containing either test compound, standard inhibitor or compound vehicle (1 % DMSO) for 5 minutes. Reactions were started by addition of either ^3H-Serotonin, ^3H-Noradrenaline or ^3H-Dopamine substrates. All reactions were carried out at room temperature in a shaking incubator. Incubation times were 5 minutes for the hSERT and hDAT assays and 15 minutes for the hNET assay. Reactions were terminated by removal of the reaction mixture using a vacuum manifold followed by rapid washing with ice cold assay buffer. The quantity of ^3H-substrate incorporated into the cells was then quantified.
Assay plates were dried in a microwave oven, scintillation fluid added, and radioactivity measured.
(iii) Standard Assay Buffer Composition:
Note: The pH of the buffer was adjusted to 7.40 with 1 M NaOH before addition of CaCI2 and pargyline.
(iv) Summary of Assay Parameters
In the case of `CSc1ccc(Oc2ccc(-n3cnnc3)cc2CN(C)C)cc1` [Example 189, N-[2-[4-(Methylsulfanyl)phenoxy]-5-(4H-1,2,4-triazol-4-yl)benzyl]-N,N-dimethylamine], the IC50 is reported as no more than 50 nM. For `CSc1ccc(Oc2ccc(NS(=O)(=O)C(F)(F)F)cc2CN(C)C)cc1` [Example 140, N-{3-[(Dimethylamino)methyl]-4-[4-(methylsulfanyl)phenoxy]phenyl}-(trifluoro)methanesulfonamide], the IC50 was no more than 50 nM. `CNCc1cc(-n2nccn2)ccc1Oc1ccc(SC)cc1` [Example 182, N-methyl-N-[2-[4-(methylsulfanyl)phenoxy]-5-(2 H-1,2,3-triazol-2-yl)benzyl]amine] gave an IC50 of no more than 50 nM. Work on `CSc1ccc(Oc2ccc(-n3nccn3)cc2CN(C)C)cc1` [Example 183, N,N-Dimethyl-N-[2-[4-(methylsulfanyl)phenoxy]-5-(2 H-1,2,3-triazol-2-yl)benzyl]amine] yielded an IC50 of no more than 50 nM. In the case of `CNCc1cc(-n2cncn2)ccc1Oc1ccc(SC)cc1` [Example 187, N-Methyl-N-[2-[4-(methylsulfanyl)phenoxy]-5-(1 H-1,2,4-triazol-1-yl)benzyl]amine], the IC50 is reported as no more than 50 nM. `CNCc1cc(Br)ccc1Oc1ccc(SC)cc1` [Example 23, N-{5-Bromo-2-[4-(methylsulfanyl)phenoxy]benzyl}-N-methylamine] showed an IC50 of no more than 50 nM. `CNCc1cc(-n2ccnc2)ccc1Oc1ccc(SC)cc1` [Example 185, N-[2-[4-(Methylsulfanyl)phenoxy]-5-(1 H-imidazol-1-yl)benzyl]-N-methylamine] gave an IC50 of no more than 50 nM. With `CNCc1cc(-n2ccnn2)ccc1Oc1ccc(SC)cc1` [Example 181, N-Methyl-N-[2-[4-(methylsulfanyl)phenoxy]-5-(1 H-1,2,3-triazol-1-yl)benzyl]amine] the IC50 was no more than 50 nM.

Same assay, conditions: HEK-293 cells transfected with hSERT, 3H-Serotonin uptake, 5 minutes incubation, room temperature; read-out: serotonin re-uptake inhibition (SRI) IC50
Molecule `CN(C)Cc1cc(C(N)=O)ccc1Oc1ccc(OC(F)(F)F)cc1` [Example 94] has an IC50 of no more than 50 nM. Molecule `CNCc1cc(CO)ccc1Oc1ccc(SC)cc1` [Example 156, {3-[(Methylamino)methyl]-4-[4-(methylsulfanyl)phenoxy]phenyl}methanol] has an IC50 of no more than 50 nM. `CSc1ccc(Oc2ccc(C#N)cc2CN(C)C)cc1` [Example 85] gave an IC50 of no more than 50 nM. In the case of `CN(C)Cc1cc(NS(C)(=O)=O)ccc1Oc1ccc(OC(F)(F)F)cc1` [Example 116], the IC50 is reported as no more than 50 nM. Molecule `CNCc1cc(N(CCO)S(C)(=O)=O)ccc1Oc1ccc(SC)cc1` [Example 130] has an IC50 of no more than 50 nM. `CN(C)Cc1cc(C(N)=O)ccc1Oc1ccc(C(F)(F)F)cc1` [Example 95] showed an IC50 of no more than 50 nM. For `COc1ccc(Oc2ccc(SC)cc2)c(CN(C)C)c1` [Example 14], the IC50 was no more than 50 nM. `CSc1ccc(Oc2ccc(C(N)=O)cc2CN(C)C)cc1` [Example 91, 3-[(Dimethylamino)methyl]-4-[4-(methylsulfanyl)phenoxy]benzamide] gave an IC50 of no more than 50 nM. `CNCc1cc(NS(C)(=O)=O)ccc1Oc1ccc(SC)cc1` [Example 128, N-{3-[(Methylamino)methyl]-4-[4-(methylsulfanyl)phenoxy]phenyl}methanesulfonamide] gave an IC50 of no more than 50 nM. Molecule `CSc1ccc(Oc2ccc(OC(F)(F)F)cc2)c(CN(C)C)c1` [Example 141, N,N-Dimethyl-N-{5-(methylsulfanyl)-2-[4-(trifluoromethoxy)phenoxy]benzyl}amine] has an IC50 of no more than 50 nM. Molecule `CSc1ccc(Oc2ccc(-n3ccnn3)cc2CN(C)C)cc1` [Example 184, N,N-Dimethyl-N-[2-[4-(methylsulfanyl)phenoxy]-5-(1 H-1,2,3-triazol-1-yl)benzyl]-amine] has an IC50 of no more than 50 nM. For `CSc1ccc(Oc2ccc(S(N)(=O)=O)cc2CN(C)C)cc1` [Example 28, 3-[(Dimethylamino)methyl]-4-[4-(methylsulfanyl)phenoxy]benzenesulfonamide], the IC50 was no more than 50 nM. In the case of `CN(C)Cc1ccc(C(N)=O)cc1Oc1ccc(OC(F)(F)F)cc1` [Example 98, 4-[(Dimethylamino)methyl]-3-[4-(trifluoromethoxy)phenoxy]benzamide], the IC50 is reported as no more than 50 nM. Molecule `CNS(=O)(=O)c1ccc(Oc2ccc(C(F)(F)F)cc2)c(CN(C)C)c1` [Example 30] has an IC50 of no more than 50 nM. In the case of `CNCc1cc(C(N)=O)ccc1Oc1ccc(SC)c(OC)c1` [Example 169, 4-[3-Methoxy-4-(methylsulfanyl)phenoxy]-3-[(methylamino)methyl]benzamide], the IC50 is reported as no more than 50 nM. With `CN(C)Cc1cc(CNS(C)(=O)=O)ccc1Oc1ccc(OC(F)(F)F)cc1` [Example 117] the IC50 was no more than 50 nM. Work on `CNCc1cc(C(=O)NC)ccc1Oc1ccc(SC)c(OC)c1` [Example 176] yielded an IC50 of no more than 50 nM. `CN(C)Cc1cc(S(C)(=O)=O)ccc1Oc1ccc(OC(F)(F)F)cc1` [Example 145, N,N-Dimethyl-N-{5-(methylsulfonyl)-2-[4-(trifluoromethoxy)phenoxy]benzyl}amine] gave an IC50 of no more than 50 nM. Work on `CN(C)Cc1cc(CN)ccc1Oc1ccc(OC(F)(F)F)cc1` [Example 110, N-{5-(Aminomethyl)-2-[4-(trifluoromethoxy)phenoxy]benzyl}-N,N-dimethylamine] yielded an IC50 of no more than 50 nM. For `CC[S+]([O-])c1ccc(CN(C)C)c(Oc2ccc(C(F)(F)F)cc2)c1` (stereo not shown) [Example 148], the IC50 was no more than 50 nM. `CNCc1cc(NS(C)(=O)=O)ccc1Oc1ccc(C(F)(F)F)cc1` [Example 121, N-{3-[(Methylamino)methyl]-4-[4-(trifluoromethyl)phenoxy]phenyl}-methanesulfonamide] showed an IC50 of no more than 50 nM. With `CNCc1cc(C#N)ccc1Oc1ccc(SC)cc1` [Example 87, 3-[(Methylamino)methyl]-4-[4-(methylsulfanyl)phenoxy]benzonitrile] the IC50 was no more than 50 nM. For `CNCc1cc(C(N)=O)ccc1Oc1ccc(SC)cc1` [Example 97], the IC50 was no more than 50 nM. For `CSc1ccc(Oc2ccc(-n3cncn3)cc2CN(C)C)cc1` [Example 188, N,N-dimethyl-N-[2-[4-(methylsulfanyl)phenoxy]-5-(1 H-1,2,4-triazol-1-yl)benzyl]-amine], the IC50 was no more than 50 nM. Work on `CSc1ccc(Oc2ccc(S(=O)(=O)N[C@@H](C)CO)cc2CN(C)C)cc1` [Example 53] yielded an IC50 of no more than 50 nM. `CNCc1cc(C(=O)NCCOC)ccc1Oc1ccc(SC)cc1` [Example 170] gave an IC50 of no more than 50 nM. For `CNCc1cc(C(=O)N[C@@H](C)CO)ccc1Oc1ccc(SC)cc1` [Example 174], the IC50 was no more than 50 nM. `CSc1ccc(Oc2ccc(Cl)cc2CN(C)C)cc1` [Example 135] showed an IC50 of no more than 50 nM. With `CN(C)Cc1cc(S(N)(=O)=O)ccc1Oc1ccc(OC(F)(F)F)cc1` [Example 36] the IC50 was no more than 50 nM. With `CN(C)Cc1ccc(CNS(C)(=O)=O)cc1Oc1ccc(OC(F)(F)F)cc1` [Example 120] the IC50 was no more than 50 nM. For `CN(C)Cc1ccc(C(N)=O)cc1Oc1ccc(C(F)(F)F)cc1` [Example 90, 4-[(Dimethylamino)methyl]-3-[4-(trifluoromethyl)phenoxy]benzamide], the IC50 was no more than 50 nM. Molecule `CN(C)Cc1cc(NS(C)(=O)=O)ccc1Oc1ccc(C(F)(F)F)cc1` [Example 114, N-(3-[(Dimethylamino)methyl]-4-[4-(trifluoromethyl)phenoxy]phenyl} methanesulfonamide] has an IC50 of no more than 50 nM. `CNCc1cc(-n2ccc(N)n2)ccc1Oc1ccc(SC)cc1` [Example 190, N-{5-(3-Amino-1H-pyrazol-1-yl)-2-[4-(methylsulfanyl)phenoxy]benzyl}-N-methylamine] showed an IC50 of no more than 50 nM. For `CNCc1cc(O)ccc1Oc1ccc(SC)cc1` [Example 74, 3-[(Methylamino)methyl]-4-[4-(methylsulfanyl)phenoxy]phenol], the IC50 was no more than 50 nM. In the case of `CN(C)Cc1cc(CO)ccc1Oc1ccc(OC(F)(F)F)cc1` [Example 157], the IC50 is reported as no more than 50 nM. `CN(C)Cc1cc(C#N)ccc1Oc1ccc(OC(F)(F)F)cc1` [Example 84] gave an IC50 of no more than 50 nM. In the case of `CN(C)Cc1cc(Br)ccc1Oc1ccc(C(F)(F)F)cc1` [Example 3], the IC50 is reported as no more than 50 nM. Work on `CNC(=O)c1ccc(Oc2ccc(OC(F)(F)F)cc2)c(CN(C)C)c1` [Example 101] yielded an IC50 of no more than 50 nM. In the case of `CSc1ccc(Oc2ccc(Br)cc2CN(C)C)cc1` [Example 9], the IC50 is reported as no more than 50 nM. For `CN(C)Cc1cc([S+](C)[O-])ccc1Oc1ccc(C(F)(F)F)cc1` (stereo not shown) [Example 147], the IC50 was no more than 50 nM.

Test system: not given
Assay: not given
Settings: not given
`CSc1ccc(Oc2ccc(S(N)(=O)=O)cc2CN(C)C)cc1` (as salt: hydrochloride) [Example 28, 3-[(Dimethylamino)methyl]-4-[4-(methylsulfanyl)phenoxy]benzenesulfonamide] showed a melting point of 193 to 194 °C.
